“And” between values parts separate entries of the source, which are not always exact repeats. Equal entries are not always repeated. Structures can show the parent of a compound that is named as a salt.
test system: lipase; test: Lipase/lipolysis assay (EnzChek Lipase Substrate, quenched BODIPY-fatty acid conjugate) on stored human milk; further: test concentration or dose not given here

| Structure (SMILES) | Lipase (RFU) |
| --- | --- |
| O=S(=O)([O-])c1ccc(N=Nc2c(O)ccc3cc(S(=O)(=O)[O-])ccc23)cc1.[Na+].[Na+] [Sunset Yellow FCF] | 868.5434 RFU |
| COc1cc(C=O)cc(OC)c1O [Syringaldehyde] | 938.0511 RFU and 949.8732 RFU |
| COc1cc(/C=C/CO)cc(OC)c1O[C@@H]1O[C@H](CO)[C@@H](O)[C@H](O)[C@H]1O [Syringin] | 935.9617 RFU |
| C[n+]1cccc(C(N)=O)c1 [TRIA-662] | 1140.39 RFU |
| COc1ccc(-c2cc(=O)c3c(OC)c(OC)c(OC)c(OC)c3o2)cc1 [Tangeritin] | 1254.653 RFU |
| C=C1CC[C@]2(C)CC[C@]3(C)[C@H](CC[C@@H]4[C@@]5(C)CC[C@H](O)C(C)(C)[C@@H]5CC[C@]43C)[C@H]2[C@@H]1C [Taraxasterol] | 974.5848 RFU |
| C[C@H](CCC(=O)NCCS(=O)(=O)[O-])[C@H]1CC[C@H]2[C@@H]3[C@H](O)C[C@@H]4C[C@H](O)CC[C@]4(C)[C@H]3CC[C@]12C.[Na+] [Taurochenodeoxycholic acid (sodium)] | 1047.423 RFU |
| C[C@H](CCC(=O)NCCS(=O)(=O)O)[C@H]1CC[C@H]2[C@@H]3[C@H](O)C[C@@H]4C[C@H](O)CC[C@]4(C)[C@H]3C[C@H](O)[C@]12C [Taurocholic Acid] | 1299.592 RFU and 949.1523 RFU and 900.9931 RFU |
| C[C@H](CCC(=O)NCCS(=O)(=O)O)[C@H]1CC[C@H]2[C@@H]3[C@H](O)C[C@@H]4C[C@H](O)CC[C@]4(C)[C@H]3C[C@H](O)[C@]12C [Taurocholic acid (sodium salt hydrate)] | 1148.675 RFU |
| C[C@H](CCC(=O)NCCS(=O)(=O)O)[C@H]1CC[C@H]2[C@@H]3[C@H](O)C[C@@H]4C[C@H](O)CC[C@]4(C)[C@H]3C[C@H](O)[C@]12C [Taurocholic acid (sodium)] | 1062.302 RFU and 748.8784 RFU |
| C[C@H](CCC(=O)NCCS(=O)(=O)O)[C@H]1CC[C@H]2[C@@H]3[C@@H](O)C[C@@H]4C[C@H](O)CC[C@]4(C)[C@H]3CC[C@]12C.O.O [Tauroursodeoxycholate (dihydrate)] | 1204.528 RFU |
| C[C@H](CCC(=O)NCCS(=O)(=O)[O-])[C@H]1CC[C@H]2[C@@H]3[C@@H](O)C[C@@H]4C[C@H](O)CC[C@]4(C)[C@H]3CC[C@]12C.[Na+] [Tauroursodeoxycholate (sodium)] | 939.6362 RFU |
| COc1cc(O)c2c(=O)cc(-c3ccccc3)oc2c1 [Tectochrysin] | 890.4365 RFU |
| CCCCCCCCCCCCCC(=O)O[C@H](CC(=O)[O-])C[N+](C)(C)C [Tetradecanoylcarnitine] | 951.8251 RFU |
| C[C@]12CC[C@@H](O)C[C@H]1CC[C@@H]1[C@@H]2[C@@H](O)C[C@@]2(C)[C@H]1CC[C@]2(O)C(=O)CO [Tetrahydrocortisol] | 1127.321 RFU |
| O=S(=O)(O)SSS(=O)(=O)O [Tetrathionate] | 924.2846 RFU |
| OP(O)(O)=S [Thiophosphate] | 918.3175 RFU and 750.1825 RFU |
| O=S(O)(O)=S [Thiosulfate] | 1139.701 RFU |
| O=CC[C@H](O)[C@H](O)CO [Thyminose] | 811.3551 RFU |
| Cc1ccc(C(C)C)c(O)c1 [Thymol] | 1327.554 RFU and 943.6199 RFU |
| CC(C)=CCC[C@H](C)[C@@H]1CC[C@]2(C)C3=C(CC[C@@]12C)[C@@]1(C)CC[C@H](O)C(C)(C)[C@@H]1CC3 [Tirucallol] | 1060.924 RFU |

| Structure (SMILES) | Lipase (RFU) |
| --- | --- |
| C[C@H]1CC[C@]2(NC1)O[C@H]1C[C@H]3[C@@H]4CC[C@H]5C[C@@H](O)CC[C@]5(C)[C@H]4CC[C@]3(C)[C@H]1[C@@H]2C [Tomatidine] | 1057.071 RFU |
| C[C@H]1CC[C@]2(NC1)O[C@H]1C[C@H]3[C@@H]4CC[C@H]5C[C@@H](O[C@@H]6O[C@H](CO)[C@H](O[C@@H]7O[C@H](CO)[C@@H](O)[C@H](O[C@@H]8OC[C@@H](O)[C@H](O)[C@H]8O)[C@H]7O[C@@H]7O[C@H](CO)[C@@H](O)[C@H](O)[C@H]7O)[C@H](O)[C@H]6O)CC[C@]5(C)[C@H]4CC[C@]3(C)[C@H]1[C@@H]2C [Tomatine] | 635.5707 RFU |
| COc1cc(O[C@@H]2O[C@H](CO)[C@@H](O)[C@H](O)[C@H]2O)c2c(O)c(C(C)=O)c(C)cc2c1 [Torachrysone-8-O-b-D-glucoside] | 1039.734 RFU |
| O=c1cc(-c2ccccc2)oc2cc(O)cc(O[C@@H]3O[C@H](CO)[C@@H](O)[C@H](O)[C@H]3O)c12 [Toringin] | 1102.623 RFU |
| COc1ccc(C[C@H]2COC(=O)[C@]2(O)Cc2ccc(O[C@@H]3O[C@H](CO)[C@@H](O)[C@H](O)[C@H]3O)c(OC)c2)cc1OC [Tracheloside] | 940.7065 RFU |
| COc1cc(-c2cc(=O)c3c(O)cc(O)cc3o2)cc(OC)c1O [Tricin] | 691.2218 RFU |
| CCOP(=O)(OCC)OCC [Triethyl Phosphate] | 963.8293 RFU |
| CCCCC/C=C\C/C=C\CCCCCCCC(=O)OCC(COC(=O)CCCCCCC/C=C\C/C=C\CCCCC)OC(=O)CCCCCCC/C=C\C/C=C\CCCCC [Trilinolein] | 834.4039 RFU |
| O=C(CCc1ccc(O)cc1)c1c(O)cc(O[C@@H]2O[C@H](CO)[C@@H](O)[C@H](O)[C@H]2O)cc1O [Trilobatin] | 813.3377 RFU and 1211.862 RFU |
| C[N+](C)(C)[O-] [Trimethylamine N-oxide] | 948.4231 RFU and 1147.152 RFU |
| CC1=C(O)C(=O)C=C2C1=CC=C1[C@@]2(C)CC[C@@]2(C)[C@@H]3C[C@](C)(C(=O)O)CC[C@]3(C)CC[C@]12C [Tripterin] | 952.6128 RFU |
| CCCCCCCCCC(=O)OCC(COC(=O)CCCCCCCCC)OC(=O)CCCCCCCCC [Trisdecanoin] | 969.1379 RFU |
| CN1[C@@H]2CC[C@H]1CC(=O)C2 [Tropinone] | 856.4439 RFU |
| O=C(CO)[C@@H](O[C@H]1O[C@H](CO)[C@@H](O)[C@H](O)[C@H]1O)[C@H](O)[C@H](O)CO [Turanose] | 1221.239 RFU and 697.9672 RFU |
| CC[C@H]1OC(=O)C[C@@H](O)[C@H](C)[C@@H](O[C@@H]2O[C@H](C)[C@@H](O[C@H]3C[C@@](C)(O)[C@@H](O)[C@H](C)O3)[C@H](N(C)C)[C@H]2O)[C@@H](CC=O)C[C@@H](C)C(=O)/C=C/C(C)=C/[C@@H]1CO[C@@H]1O[C@H](C)[C@@H](O)[C@@H](OC)[C@H]1OC [Tylosin (phosphate)] | 1132.19 RFU |
| CC[C@H]1OC(=O)C[C@@H](O)[C@H](C)[C@@H](O[C@@H]2O[C@H](C)[C@@H](O[C@H]3C[C@@](C)(O)[C@@H](O)[C@H](C)O3)[C@H](N(C)C)[C@H]2O)[C@@H](CC=O)C[C@@H](C)C(=O)/C=C/C(C)=C/[C@@H]1CO[C@@H]1O[C@H](C)[C@@H](O)[C@@H](OC)[C@H]1OC.O=C(O)C(O)C(O)C(=O)O [Tylosin (tartrate)] | 942.0391 RFU |
| NC(N)=O [Urea] | 934.3458 RFU and 864.3039 RFU |
| NC(=O)NCCC(=O)O [Ureidopropionic acid] | 1035.138 RFU |
| O=c1[nH]c(=O)c2[nH]c(=O)[nH]c2[nH]1.[Na] [Uric acid (sodium)] | 855.3809 RFU |
| O=C(O)/C=C/c1c[nH]cn1 [Urocanic acid] | 1101.226 RFU |
| C[C@H](CCC(=O)O)[C@H]1CC[C@H]2[C@@H]3[C@@H](O)C[C@@H]4C[C@H](O)CC[C@]4(C)[C@H]3C[C@H](O)[C@]12C [Ursocholic acid] | 879.9608 RFU |

From patent US12507703B2, “Methods, devices and compositions for preserving human milk” (The Trustees of Princeton University, priority 2023, dated 2025)
